This passage reports cytotoxicity results from ChEMBL document CHEMBL3507680, “University of Dundee, Gates Library screen for HepG2 cell viability”.

SMILES strings stand for the structures.

The nature of the data set: Human HepG2 cell viability assay in 384 well format. The note with it: HepG2 cells, read-out: Inhibition. Type of data set: toxicity, cell-based. Details: dose 125 nL, time 70.5 hour; concentration not given beside the values.
In the case of `Cc1cc(-c2cnc(NCc3ccncc3)nc2C(C)C)on1`, the cytotoxicity at 70.5 h was found to be 2.62%. In the case of `O=c1[nH]c(-c2ccccn2)nc2c1CCN(Cc1cccc(O)c1)C2` it was -4.95%; in that of `COc1ccc(CN2CCc3c(nc(-c4ccccn4)[nH]c3=O)C2)cc1`, 13.1%. For the molecule `Cn1cccc1CN1CCc2c(nc(-c3ccccn3)[nH]c2=O)C1`, the cytotoxicity at 70.5 h is -2.89%. Turning to `Cc1occc1-c1nc(NC2CCCC2)ncc1-c1ccccn1`, the cytotoxicity at 70.5 h was 1.09%. In the case of `Cn1cc(CN2CCCC(CCCc3ccccn3)(C(N)=O)C2)cn1` (stereo not given) it was -8.02%.

On to `CN(C)C(=O)CN1CCC(c2cccc(Cc3ccc(F)cc3)n2)CC1`, for which the cytotoxicity at 70.5 h is 15.8%. Turning to `CCCC(=O)N1CCN(Cc2cc(-c3ccncc3)nn2C)CC1`, the cytotoxicity at 70.5 h was 0.205%.

Turning to `CCC(CC)C(=O)N1CCN(Cc2cc(-c3ccncc3)nn2C)CC1`, the cytotoxicity at 70.5 h stood at 1.08%. In the case of `O=C(CC1CCCC1)N1CCOC(c2nc(-c3ncccn3)no2)C1` (stereo not given) it was -1.63%.

As for `Cc1noc2nc(C3CCCN(Cc4cccnc4)C3)cc(C(F)F)c12` (stereo not given), the cytotoxicity at 70.5 h is -3.71%. Consider `O=C(C1CCCC1)N1CCCC(c2nc(O)cc(-c3ccncc3)n2)C1` (stereo not given), for which the cytotoxicity at 70.5 h is 5.93%.

Regarding `CNC(=O)Nc1cnc2cc(Cl)ccc2c1O`, the cytotoxicity at 70.5 h worked out at 10%. In the case of `OC1(Cn2ccc3ncccc32)CCN(Cc2cccs2)CC1` it was -0.455%.

On to `Cc1cc(CN2CCC(O)(Cn3ccc4ncccc43)CC2)c(C)s1`, for which the cytotoxicity at 70.5 h came to 4.82%. In the case of `Cc1ccc(=O)n(CC2(O)CCN(Cc3cnc(N(C)C)nc3)CC2)n1` it was 17.6%; in that of `O=C(c1ccncc1)N1CCCC(c2cc(C(F)F)n3ncnc3n2)C1` (stereo not given), -3.18%; in that of `O=C(c1ccccn1)N1CCCC(c2cc(C(F)F)n3ncnc3n2)C1` (stereo not given), -4.56%. In the case of `CC1CCCN(Cc2c(C3CC3)[nH]c3ncccc23)C1` (stereo not given) it was -4.53%. In the case of `Cc1cc(-c2cnc(NC3CCCC3)nc2-c2ccoc2)on1`, the cytotoxicity at 70.5 h was -2.38%.

`Cc1ccc([C@]2(O)CC[C@H]3CN(Cc4ccncc4)C[C@H]32)nc1`: the cytotoxicity at 70.5 h turned out to be 36%. `Cc1ccc([C@]2(O)CC[C@H]3CN(Cc4cccnc4)C[C@H]32)nc1`: the cytotoxicity at 70.5 h worked out at 9.25%. The value for `O=C(c1ccco1)N1CCCC(c2cc(C(F)(F)F)n3ncnc3n2)C1` (stereo not given) was 28.3%; that for `c1cnc2[nH]c(C3CCCC3)c(CN3CCOCC3)c2c1` was -9.59%. In the case of `COc1ccc(C2CCCN2c2cnc3ccccc3n2)c(OC)c1` (stereo not given) it was -4.21%; in that of `COc1cccc(CCNC(=O)c2ccc(=O)n(C)c2)c1`, -2.94%.

On to `N#Cc1cnc(NCc2cccc(C(=O)N3CCCC3)c2)c(Cl)c1`, for which the cytotoxicity at 70.5 h is -1.9%.

With `Cc1ccc(N2CCCN(C(=O)c3cc(CC(C)C)n[nH]3)CC2)nn1`, the cytotoxicity at 70.5 h stood at 12.9%. The value for `COCCn1nc(C(=O)N2CCN(C)CC2C)ccc1=O` (stereo not given) was -4.08%; that for `CC(=O)NC1CCN(C(=O)Nc2cccc(C(F)(F)F)c2)CC1` was 20.6%; that for `Cc1ccc(C)c(Oc2ccc(CNC(=O)C3CNC(=O)N3)cn2)c1` (stereo not given) was -1.21%. The value for `O=C(Nc1ccc(-c2csnn2)cc1)N1CC[C@H](O)C1` was -13.4%; that for `COc1cccc(-c2ccc(CNC(=O)c3ccc(=O)n(C)c3)cc2)c1` was 6.19%. Consider `CNC(=O)NCCc1csc2ccccc12`, for which the cytotoxicity at 70.5 h is -0.00639%.

As to `O=C(NCC1CCN(CCc2ccccc2)C1)NCC1(O)CCC1` (stereo not given), the cytotoxicity at 70.5 h is -3.77%.

On to `CCOc1cccc(CCNC(=O)NC2CCc3[nH]ncc3C2)n1` (stereo not given), for which the cytotoxicity at 70.5 h worked out at 24.3%. `CS(=O)(=O)c1cccc(Cl)c1C(=O)NCCN1C(=O)CCC1=O`: the cytotoxicity at 70.5 h turned out to be 16.3%. As for `COc1ccncc1NC(=O)C1(c2ccccc2)CC1`, the cytotoxicity at 70.5 h is -8.43%. The value for `CN(CCCOc1ccccc1)Cc1nccn1C` was -4.56%; that for `Cc1nc(CNCc2ccc(N3CCC(CO)CC3)nc2)cs1` was -1.44%.

As to `CC(=O)N1CCC(C(=O)N(CC(F)F)c2cccc(Cl)c2)CC1`, the cytotoxicity at 70.5 h was found to be 0.334%. The value for `NC(=O)C(NC(=O)CSCc1ccc(Cl)s1)c1ccccc1` (stereo not given) was -1.53%; that for `O=C(Nc1cccnc1)C1=Cc2ccccc2OC1` was 7.74%. The value for `CCC(C)NC(=O)CS(=O)(=O)Cc1ccccc1Cl` (stereo not given) was -7.35%; that for `CNC(=O)C1CCCCN1C(=O)c1csc(-c2ccc(C)cc2)n1` (stereo not given) was -9.54%; that for `COc1cccc(COC(C)C(=O)N(C)Cc2nnc3n2CCC3)c1` (stereo not given) was -3.46%. The value for `CC(C)N(C)CCCNC(=O)c1cnn(C(C)C)c1C(F)(F)F` was 13.9%; that for `O=S1(=O)CCC(c2nnc(-c3cnc4onc(C5CCCC5)c4c3)o2)C1` (stereo not given) was 20.9%; that for `COc1nc(N2CCNCC2)ncc1Br` was -9.1%. Take `CNC(=O)Cc1noc(-c2cc3c(s2)CCCC3)n1`: the cytotoxicity at 70.5 h was -8.17%.

`Cc1cccc2nc(CN3CCC(Cn4ccnn4)CC3)cc(=O)n12`: the cytotoxicity at 70.5 h was -3.54%. In the case of `CC(C)(C)C(=O)N1CCCN(c2ncnc3nc(N)ccc23)CC1` it was -1.35%; in that of `CC(C)OCCC1CCCCN1S(C)(=O)=O` (stereo not given), -8.81%.

As for `CCN(CC)S(=O)(=O)NC(C)C(=O)N(C)C` (stereo not given), the cytotoxicity at 70.5 h stood at 0.169%. With `Fc1cccc(C(NCc2ncc[nH]2)c2ccccn2)c1` (stereo not given), the cytotoxicity at 70.5 h is -6.19%.

Turning to `Clc1cccc(C(NCc2ncc[nH]2)c2ccccn2)c1` (stereo not given), the cytotoxicity at 70.5 h was 1.18%.

In the case of `COc1ccc(CNC(=O)N2CCc3sccc3C2)cc1O`, the cytotoxicity at 70.5 h is -10.2%. The value for `O=C(Cn1nc(-c2ccc(F)cc2)oc1=O)NCC1CCCO1` (stereo not given) was -3.49%; that for `CN(CC(=O)N1CCCC1)C(=O)c1ccccc1F` was -13.9%; that for `Cc1noc(CNc2cc3c(cc2Cl)OCCCO3)n1` was -14.8%. As to `CS(=O)(=O)NCCC(=O)Nc1ccccc1N1CCc2ccccc21`, the cytotoxicity at 70.5 h is -22.1%. `CCN(Cc1cc(Br)ccc1F)C(=O)C(C)NC(N)=O` (stereo not given): the cytotoxicity at 70.5 h was -19.1%.

Consider `Cc1nc(Cn2cnc3c(c(Br)nn3C)c2=O)cs1`, for which the cytotoxicity at 70.5 h was 11.6%. In the case of `Cc1nnc(CN(C)CCc2nc(-c3cccc(Cl)c3)no2)n1C` it was -13.1%; in that of `N#CCCN(CC(=O)Nc1ccc(Br)cc1Cl)Cc1cccnc1`, -1.52%; in that of `N#Cc1cc(F)ccc1NCC1CCN(S(=O)(=O)C(F)F)CC1`, -14.3%. In the case of `O=C(CCC(F)(F)F)NCC1CCCS1` (stereo not given) it was -6.67%; in that of `CC(NC(N)=O)C(=O)NCc1cc(Br)ccc1F` (stereo not given), -7.15%.

On to `Cc1nc(NS(=O)(=O)c2ccc(F)c(Br)c2)no1`, for which the cytotoxicity at 70.5 h is -2.96%. The value for `Cc1cc(F)cc(S(=O)(=O)Nc2noc(C)n2)c1` was -1.08%; that for `O=c1oc(-c2ccc(F)cc2)nn1CC1CCCCO1` (stereo not given) was -3.87%; that for `O=C(CN1CCCC(c2ncc[nH]2)C1)NCCCN1CCCCCC1=O` (stereo not given) was -10.5%.

For `CCc1noc(CNc2cc3c(cc2Cl)OCCO3)n1`, the cytotoxicity at 70.5 h turned out to be 15.1%. The value for `COC(=O)C1CCCN1C(=O)c1ccc(Br)cc1F` (stereo not given) was 12.6%; that for `CCn1c(C)cc(C(=O)N2CCC(NC(=O)c3cc(C)no3)CC2)c1C` was -112%; that for `O=C(CNc1cc(-n2cnnn2)ccc1F)Nc1ccccc1Cl` was -114%. In the case of `Cc1ccccc1CC(=O)NS(=O)(=O)c1cccc2cnccc12` it was -40.8%. The value for `NC(=O)CCCNC(=O)Cc1csc(Cc2ccccn2)n1` was -135%.

Regarding `Cc1nc(-c2ccco2)ccc1C(=O)NCCC(=O)N1CCCCC1`, the cytotoxicity at 70.5 h was -103%. In the case of `Cc1nc(-c2ccco2)ccc1C(=O)NCCN1CCN(C)CC1` it was -114%. The value for `N#Cc1c(F)cccc1Nc1cnn(CC(N)=O)c1` was -112%. With `COC(C)Cc1nc(-c2cnn3c(C)cc(C)nc23)no1` (stereo not given), the cytotoxicity at 70.5 h is -97.5%. In the case of `Cc1cc(C)c(S(=O)(=O)Nc2cccc3c2OCCO3)cc1C(=O)O` it was -27.2%; in that of `CCC(CC)NC(=O)c1nc2n(n1)-c1ccccc1S(=O)(=O)N2`, -82.7%; in that of `Cc1ncc(C(=O)OCC2CCN(c3ccccc3)C2)s1` (stereo not given), -126%. The value for `Cn1cccc1C(=O)NC(C)(C(N)=O)c1cccc(Cl)c1` (stereo not given) was -98.6%; that for `N#Cc1c(F)cccc1Nc1cnn(CC(O)CN2CCOCC2)c1` (stereo not given) was -102%; that for `NC(=O)C1CCN(c2ccc3cc(Br)ccc3n2)C1` (stereo not given) was -89.2%. Regarding `CCN(CC)C(=O)CCc1nc(-c2cnn3c(C)cc(C)nc23)no1`, the cytotoxicity at 70.5 h is -121%. The value for `CNS(=O)(=O)CC(=O)N1CCCc2cc(Br)ccc21` was -88.8%; that for `N#Cc1c(Cl)nsc1NCc1cccnc1OC1CCCC1` was -94.1%. In the case of `O=C(OCC1CCCN(C(=O)c2ccccc2)C1)c1cscn1` (stereo not given) it was -88.6%; in that of `COCCN1CCN(Cc2c(C3CCNCC3)[nH]c3ncccc23)CC1`, -2.48%; in that of `c1cnc2c(c1)cc([C@@H]1CCCO1)n2CCN1CCOCC1`, 0.0365%. In the case of `Cc1ccc(CNCc2ccc(N3CCC(CO)CC3)nc2)c(C)c1` it was -5.56%. Regarding `Cc1ccc(CN(Cc2ncc[nH]2)C2CC(C)(C)NC(C)(C)C2)o1`, the cytotoxicity at 70.5 h was 9.13%. The value for `Cc1ccc([C@]2(O)CC[C@H]3CN(Cc4cccc(F)c4F)C[C@H]32)nc1` was 5.11%; that for `Cc1ccc([C@]2(O)CC[C@H]3CN(Cc4ccccc4F)C[C@H]32)nc1` was -9.24%. In the case of `CC(C)C(N)C1=N/C(=C2\N=CN=N2)NO1` (stereo not given) it was 5.13%; in that of `CC(C)CC(N)C1=N/C(=C2\N=CN=N2)NO1` (stereo not given), 29.4%.
